Measured values reported in patent publication US11111232B2, “Substituted cyclobutylpyridine and cyclobutylpyrimidine compounds as indoleamine 2,3-dioxygenase (IDO) inhibitors” (MERCK SHARP & DOHME CORP., priority 2017, dated 2021).

How the values were obtained:
IDO1 = IDO1 (Homo sapiens, UniProt P14902); experiment: IDO1 cellular assay in Hela cells stimulated with IFNγ; type: cell-based; settings: IFNγ 100 ng/mL, 300 uM L-tryptophan, about 48 hours, fluorescence readout
Procedure: IDO1 Cellular Assay in Hela Cells Stimulated with IFNγ
Hela cells were cultured in complete Hela culture medium (90% EMEM, 10% heat-inactivated fetal bovine serum) and expanded to about 1×10^9 cells. The cells were then collected and frozen down at 1×10^7 cells/vial in 1 mL frozen medium (90% complete Hela culture medium, 10% DMSO)
Compounds to be tested were serially diluted in ten 3-fold steps in DMSO starting from 10 mM DMSO stocks in Echo low volume plate(s).
Frozen Hela cells were thawed and transferred into Hela assay medium (99% complete Hela culture medium, 1% Pen/Strep) with 20 mL medium/vial of cells. The cells were spun down at 250 g in a table top centrifuge for 5 min and suspended in same volume of Hela assay medium. […] Sterile L-tryptophan were added to the cells with final concentration of 300 uM L-tryptophan. A small aliquot (2 mL/plate) of Hela cells were set aside and were not treated with IFNγ, to serve as the Max-E control.
Hela cells with and without IFNγ were dispensed to the respective wells of 384-well assay plates containing the compounds. The plates were incubated for about 48 hours at a 37° C., 5% CO2 incubator. Afterwards, […] of 0.5 M methyl isonipecotate in dimethyl sulfoxide were added into each well and the plates were sealed and incubated at 37° C. without CO2 overnight. The plates were centrifuged for 1 min at 200×g. The resulting fluorescence was measured in a Spectramax plate reader (Molecular Devices) with a 400 nm excitation filter and a 510 nm emission filter.
Potencies were calculated by linear least squares fit to the four parameter logistic IC50 equation.

TDO = molecular target: T1, TDO (Homo sapiens, UniProt P48775); experiment: TDO cellular assay in frozen SW48 cells; type: cell-based; settings: 300 uM L-tryptophan, about 48 hours, fluorescence readout
T1 construct: endogenous in cells; host or cells: SW48 cells (A2780 cells as low-TDO control)
Procedure: TDO Cellular Assay in Frozen SW48 Cells
SW48 cells were cultured in complete RPMI culture medium (90% RPMI, 10% heat-inactivated fetal bovine serum).
Compounds to be tested were serially diluted in ten 3-fold steps in DMSO starting from 10 mM DMSO stocks in Echo low volume plate(s). […] The cells were spun down at 350 g in a table top centrifuge for 5 minutes and suspended in same volume of RPMI assay medium. […] Sterile L-tryptophan (Sigma, Cat #T0254) was added to the cells with final concentration of 300 uM.
SW48 and A2780 cells were dispensed to the respective wells of 384-well assay plates containing the compounds. The plates were incubated for about 48 hours at a 37° C., 5% CO2 incubator. Afterwards, 12 μL of 0.5 M ethyl isonipecotate (Sigma Aldrich, Cat #E33505) in dimethyl sulfoxide were added into each well and the plates were sealed and incubated at 37° C. without CO2 overnight. The plates were centrifuged for 1 minute at 200×g. The resulting fluorescence was measured in a Spectramax plate reader (Molecular Devices) with a 400 nm excitation filter and a 510 nm emission filter.
The fluorescence intensity of each well was corrected for the background observed in wells with A2780 cells and was expressed as a fraction of the intensity observed in wells of SW48 cells and DMSO only. Potencies were calculated by linear least squares fit to the four parameter logistic IC50 equation.

T1 sequence (P48775 whole entry): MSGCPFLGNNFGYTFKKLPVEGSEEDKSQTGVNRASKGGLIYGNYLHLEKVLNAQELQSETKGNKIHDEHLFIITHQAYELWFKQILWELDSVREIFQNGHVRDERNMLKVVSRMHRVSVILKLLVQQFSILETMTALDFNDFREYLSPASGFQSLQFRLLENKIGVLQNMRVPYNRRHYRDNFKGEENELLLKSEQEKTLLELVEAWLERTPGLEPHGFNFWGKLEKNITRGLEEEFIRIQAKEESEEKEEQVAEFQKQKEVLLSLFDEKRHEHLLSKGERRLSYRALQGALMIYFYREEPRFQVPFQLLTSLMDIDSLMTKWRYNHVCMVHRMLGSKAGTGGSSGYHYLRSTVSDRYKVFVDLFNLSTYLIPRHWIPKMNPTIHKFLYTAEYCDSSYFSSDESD
Sequence of IDO1 (P14902 whole entry): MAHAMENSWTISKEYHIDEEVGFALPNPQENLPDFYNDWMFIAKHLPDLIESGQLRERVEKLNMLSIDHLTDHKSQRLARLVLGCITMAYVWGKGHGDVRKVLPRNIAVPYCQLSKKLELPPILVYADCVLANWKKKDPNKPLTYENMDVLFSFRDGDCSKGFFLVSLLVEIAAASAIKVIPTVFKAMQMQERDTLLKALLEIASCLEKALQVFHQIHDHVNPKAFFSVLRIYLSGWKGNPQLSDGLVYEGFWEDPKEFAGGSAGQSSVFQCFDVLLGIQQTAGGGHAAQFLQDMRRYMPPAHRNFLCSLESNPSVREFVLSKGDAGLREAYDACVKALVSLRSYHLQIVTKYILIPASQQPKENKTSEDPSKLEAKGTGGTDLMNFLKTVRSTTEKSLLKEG

`O=C(Nc1ccc(C2(C(=O)NCCC(F)(F)F)CCC2)cn1)c1cccc(Cl)c1` [Example 3, 3-chloro-N-(5-{1-[(3,3,3-trifluoropropyl)carbamoyl]cyclobutyl}pyridin-2-yl)benzamide] showed an IC50 (IDO1) of 3 nM and an IC50 (TDO) of at least 10 µM.
Work on `CCCNC(=O)C1(c2ccc(NC(=O)c3cccc(Cl)c3)nc2)CCC1` [Example 4, 3-chloro-N-{5-[1-(propylcarbamoyl)cyclobutyl]pyridin-2-yl}benzamide] yielded an IC50 (IDO1) of 151 nM and an IC50 (TDO) of at least 10 µM.
In the case of `O=C(Nc1ccc(C2(C(=O)Nc3ccc(F)nc3)CCC2)cn1)c1cccc(Cl)n1` [Example 6, 6-chloro-N-(5-{1-[(6-fluoropyridin-3-yl)carbamoyl]cyclobutyl}pyridin-2-yl)pyridine-2-carboxamide], the IC50 (IDO1) is reported as 94 nM and the IC50 (TDO) is reported as at least 10 µM.
With `Cc1cccc(C(=O)Nc2ccc(C3(C(=O)Nc4ccc(F)nc4)CCC3)cn2)n1` [Example 8, N-(5-{1-[(6-fluoropyridin-3-yl)carbamoyl]cyclobutyl}pyridin-2-yl)-6-methylpyridine-2-carboxamide] the IC50 (IDO1) was 43 nM and the IC50 (TDO) was at least 10 µM.
Compound `O=C(Nc1ccc(C2(C(=O)Nc3ccc(F)cc3)CCC2)cn1)C1CCC(F)(F)CC1` [Example 9, 4,4-difluoro-N-(5-{1-[(4-fluorophenyl)carbamoyl]cyclobutyl}pyridin-2-yl)cyclohexane-1-carboxamide] has an IC50 (IDO1) of 56 nM and an IC50 (TDO) of at least 10 µM.
Work on `N#C[C@@H]1CCC[C@H](C(=O)Nc2ccc(C3(C(=O)Nc4ccc(F)cc4)CCC3)cn2)C1` [Example 10, (1S,3R)-3-cyano-N-(5-{1-[(4-fluorophenyl)carbamoyl]cyclobutyl}pyridin-2-yl)cyclohexane-1-carboxamide] yielded an IC50 (IDO1) of 67 nM and an IC50 (TDO) of at least 10 µM.
`CC(C)(C)CCC(=O)Nc1ccc(C2(C(=O)Nc3ccc(F)cc3)CCC2)cn1` [Example 11, 1-{6-[(4,4-dimethylpentanoyl)amino]pyridin-3-yl}-N-(4-fluorophenyl)cyclobutane-1-carboxamide] showed an IC50 (IDO1) of 96 nM and an IC50 (TDO) of at least 10 µM.
With `O=C(CCC1CC1)Nc1ccc(C2(C(=O)Nc3ccc(F)nc3)CCC2)cn1` [Example 12, 1-{6-[(3-cyclopropylpropanoyl)amino]pyridin-3-yl}-N-(6-fluoropyridin-3-yl)cyclobutane-1-carboxamide] the IC50 (IDO1) was 227 nM and the IC50 (TDO) was at least 10 µM.
In the case of `N#C[C@@H]1CCC[C@@H](C(=O)Nc2ccc(C3(C(=O)Nc4ccc(F)cc4)CCC3)cn2)C1` [Example 13, (1R,3R)-3-cyano-N-(5-{1-[(4-fluorophenyl)carbamoyl]cyclobutyl}pyridin-2-yl)cyclohexane-1-carboxamide], the IC50 (IDO1) is reported as 236 nM and the IC50 (TDO) is reported as at least 10 µM.
`O=C(Nc1ccc(C2(C(=O)Nc3ccc(F)cc3)CCC2)cn1)c1cc(Cl)ccc1F` [Example 16, 5-chloro-2-fluoro-N-(5-{1-[(4-fluorophenyl)carbamoyl]cyclobutyl}pyridin-2-yl)benzamide] showed an IC50 (IDO1) of 14 nM and an IC50 (TDO) of at least 10 µM.
`CC(C)(C)OC(=O)Nc1ccc(C2(C(=O)Nc3ccc(F)cc3)CCC2)cn1` [Example 19, tert-butyl (5-{1-[(4-fluorophenyl)carbamoyl]cyclobutyl}pyridin-2-yl)carbamate] gave an IC50 (IDO1) of 103 nM and an IC50 (TDO) of at least 10 µM.
Work on `O=C(Nc1ccc(C2(C(=O)Nc3ccc(F)cc3)CCC2)cn1)c1c(F)ccc(Cl)c1F` [Example 21, 3-chloro-2,6-difluoro-N-(5-{1-[(4-fluorophenyl)carbamoyl]cyclobutyl}pyridin-2-yl)benzamide] yielded an IC50 (IDO1) of 94 nM and an IC50 (TDO) of at least 10 µM.
`O=C(Nc1ccc(C2(C(=O)Nc3ccc(F)cc3)CCC2)cn1)c1cc(Cl)ccn1` [Example 26, 4-chloro-N-(5-{1-[(4-fluorophenyl)carbamoyl]cyclobutyl}pyridin-2-yl)pyridine-2-carboxamide] showed an IC50 (IDO1) of 13 nM and an IC50 (TDO) of at least 10 µM.
`O=C(Nc1ccc(C2(C(=O)Nc3ccc(F)cc3)CCC2)cn1)c1cncc(F)c1` [Example 28, 5-fluoro-N-(5-{1-[(4-fluorophenyl)carbamoyl]cyclobutyl}pyridin-2-yl)pyridine-3-carboxamide] gave an IC50 (IDO1) of 30 nM and an IC50 (TDO) of at least 10 µM.
With `O=C(Nc1ccc(C2(C(=O)Nc3ccc(F)cc3)CCC2)cn1)N1CCCC1` [Example 31, N-(5-{1-[(4-fluorophenyl)carbamoyl]cyclobutyl}pyridin-2-yl)pyrrolidine-1-carboxamide] the IC50 (IDO1) was 145 nM and the IC50 (TDO) was at least 10 µM.
`N#Cc1cncc(C(=O)Nc2ccc(C3(C(=O)Nc4ccc(F)cc4)CCC3)cn2)c1` [Example 32, 5-cyano-N-(5-{1-[(4-fluorophenyl)carbamoyl]cyclobutyl}pyridin-2-yl)pyridine-3-carboxamide] showed an IC50 (IDO1) of 174 nM and an IC50 (TDO) of at least 10 µM.
For `O=C(Nc1ccc(C2(C(=O)NC3CCC(F)(F)CC3)CCC2)cn1)c1cncc(Cl)c1` [Example 33, 5-Chloro-N-(5-(1-((4,4-difluorocyclohexyl)carbamoyl)cyclobutyl)pyridin-2-yl)nicotinamide], the IC50 (IDO1) was 1600 nM and the IC50 (TDO) was at least 10 µM.
With `O=C(Nc1ccc(C2(C(=O)Nc3ccc(F)cn3)CCC2)cn1)c1cncc(Cl)c1` [Example 34, 5-chloro-N-(5-{1-[(5-fluoropyridin-2-yl)carbamoyl]cyclobutyl}pyridin-2-yl)pyridine-3-carboxamide] the IC50 (IDO1) was 104 nM and the IC50 (TDO) was at least 10 µM.
In the case of `O=C(NC1CCCCC1)c1ccc(C2(C(=O)Nc3ccc(F)cc3)CCC2)cn1` [Example 35, N-cyclohexyl-5-(1-((4-fluorophenyl)carbamoyl)cyclobutyl)picolinamide], the IC50 (IDO1) is reported as 473 nM and the IC50 (TDO) is reported as at least 10 µM.
For `O=C(NC1(c2ccc(NC(=O)c3ncco3)cn2)CCC1)c1ccc(Cl)nc1` [Example 39, N-(6-(1-(6-chloronicotinamido)cyclobutyl)pyridin-3-yl)oxazole-2-carboxamide], the IC50 (IDO1) was 921 nM and the IC50 (TDO) was at least 10 µM.
In the case of `O=C(NC1(c2ccc(NC(=O)c3nccs3)cn2)CCC1)c1ccc(Cl)nc1` [Example 40, 6-chloro-N-(1-{5-[(1,3-thiazole-2-carbonyl)amino]pyridin-2-yl}cyclobutyl)pyridine-3-carboxamide], the IC50 (IDO1) is reported as 280 nM and the IC50 (TDO) is reported as at least 10 µM.
With `O=C(Nc1ccc(C2(NC(=O)c3ccc(Cl)nc3)CCC2)nc1)c1ccnc(Cl)c1` [Example 43, 6-chloro-N-(1-{5-[(2-chloropyridine-4-carbonyl)amino]pyridin-2-yl}cyclobutyl)pyridine-3-carboxamide] the IC50 (IDO1) was 377 nM and the IC50 (TDO) was at least 10 µM.
Compound `O=C(Nc1ccc(C2(NC(=O)c3ccc(Cl)nc3)CCC2)nc1)c1cncc(Cl)c1` [Example 44, 5-chloro-N-(6-{1-[(6-chloropyridine-3-carbonyl)amino]cyclobutyl}pyridin-3-yl)pyridine-3-carboxamide] has an IC50 (IDO1) of 131 nM and an IC50 (TDO) of at least 10 µM.
Work on `O=C(Nc1ccc(C2(NC(=O)c3ccc(Cl)nc3)CCC2)nc1)c1ccnc(C(F)(F)F)c1` [Example 45, 6-chloro-N-[1-(5-{[2-(trifluoromethyl)pyridine-4-carbonyl]amino}pyridin-2-yl)cyclobutyl]pyridine-3-carboxamide] yielded an IC50 (IDO1) of 469 nM and an IC50 (TDO) of at least 10 µM.
Compound `N#Cc1cccc(C(=O)Nc2ccc(C3(C(=O)Nc4ccc(F)cc4)CCC3)nc2O)c1` [Example 54, 3-cyano-N-(6-(1-((4-fluorophenyl)carbamoyl)cyclobutyl)-2-hydroxypyridin-3-yl)benzamide] has an IC50 (IDO1) of 540 nM.
